Assay results as given in patent US10449152B2, “Drug loaded microspheres for post-operative chronic pain” (priority 2014, dated 2019).

Legend:
sciatic nerve [1] = experiment: sciatic nerve block, latency for leg withdrawal from noxious heat; format: in vivo, male S-D rats; conditions: about 0.6 milliliters next to the sciatic nerve; heat stimulus of about 56° C.
Procedure: The anti-nociceptive activity of EXPAREL® particles was also tested. The latency for leg withdrawal in male S-D rats from a noxious heat stimulus of about 56° C. applied to the plantar surface of the paw was used to test the duration of functional sciatic nerve block achieved using EXPAREL®. The normal latency for paw withdrawal was about 2 seconds and “maximal sensory blockade” was characterized by a latency of about 12 seconds. Sensory blockade of about 0.6 milliliters of EXPAREL® containing about 7.8 milligrams of bupivacaine, injected next to the sciatic nerve of an adult male S-D rat weighing from about 310 grams to about 420 grams, which was equivalent to about 25 milligrams of bupivacaine per kilogram, was determined by the time from injection until the latency returned to about 7 seconds, half way back to the pre-injection latency of about 2 seconds. By this criterion, the sensing block from EXPAREL® lasted about 240 minutes, and that from 0.6 milliliter solution of about 0.5% by weight bupivacaine, which was used as a control, lasted about 120 minutes.

[2] = tested on: post-operative allodynia and hyperalgesia; experiment: incision and blunt dissection of the back skin, post-operative allodynia and hyperalgesia; format: in vivo, rats; conditions: about 0.4 milliliters subcutaneous infiltration
Procedure: In a second surgical scenario, Microspheres of Example 1 were injected as a subcutaneous infiltration in the thoraco-lumbar region before an incision and blunt dissection of the back skin. Microspheres of Example 1, including about 40 milligrams of bupivacaine, were injected as a single bolus of about 0.4 milliliters. The injection produced anesthesia to VFH pokes at the injected area for about 6 hours and anesthesia to pin pricks for about 12 hours. Post-operative allodynia and hyperalgesia in this model lasted for about 14 days, but were suppressed for approximately 5 days and 3 days, respectively, by microspheres of Example 1 injected approximately 2 hours before surgery. About 0.4 milliliters of 0.5% by weight aqueous bupivacaine solution was ineffective in reducing post-operative hypersensitivity, just as the microspheres of Example 2 were also ineffective.

sciatic nerve [3] = experiment: sciatic nerve block in rats (paw pinch, motor block); format: in vivo; conditions: single bolus of about 0.4 milliliters at the sciatic nerve
Procedure: The microspheres of Example 1 were also tested for sciatic nerve block and for subcutaneous infiltration anesthesia in rats. Sciatic nerves were injected with nominal doses of microspheres of Example 1, having about 40 milligrams of bupivacaine, by injection as a single bolus of about 0.4 milliliters. […] Half-recovery of these respective functions occurred at about 42±6 hours and 36±3 hours, and normal, pre-block function was restored by about 63±8 hours for nociception and about 56±7 hours for motor block. By comparison, injection of about 0.4 milliliters of about 0.5% by weight aqueous bupivacaine solution gave complete blocks for only about 0.5 hours to about 1 hours for nociception and about 1 hour for motor functions, with complete recovery by about 3 hours for both functions.

[4] = tested on: post-operative hyperalgesia after paw incision; experiment: paw incision post-operative hyperalgesia, injection at the sciatic nerve; format: in vivo, rats; conditions: nerve block before paw incision
Procedure: Microspheres of Example 1 were also tested for anti-hyperalgesic effects after rodent surgery. […] If microspheres of Example 1 were injected at the sciatic nerve approximately 1.5 hours before the surgery, the subsequent post-operative hyperalgesia was suppressed for about 4 days. In contrast, nerve block by 0.5% by weight aqueous bupivacaine solution suppressed post-operative hyperalgesia for about 6 hours. Microspheres of Example 2 were ineffective against post-incisional pain.

For CCCCN1CCCCC1C(=O)Nc1c(C)cccc1C (stereo not drawn) [bupivacaine], the “duration of sensory block (time until latency returned to about 7 seconds)” value (sciatic nerve [1]) was “about 120 minutes”, the “reduction of post-operative hypersensitivity” value [2] was “ineffective” and the “duration of complete motor block (total flaccid paralysis)” value (sciatic nerve [3]) was “about 1 hours”. For the same molecule, the “time to normal, pre-block function (complete recovery), motor” value (sciatic nerve [3]) was “about 3 hours”, the “time to normal, pre-block function (complete recovery), nociception” value (sciatic nerve [3]) was “about 3 hours” and the “time for which post-operative hyperalgesia was suppressed” value [4] was “about 6 hours”.
